Results published in patent publication US10098352B2, “Honeybee repellents and uses thereof” (Inscent, Inc., priority 2011, dated 2018).

What was measured:
OBP2 = assay: Fluorescent-quench ligand-protein-binding assay (OBP2 binding screen); parameters: species or system Apis mellifera
Text: To identify a honeybee repellent disclosed herein, candidate compounds were screened based upon the fact that 2-heptanone is an established repellent of bees. 2-heptanone is thought to mediate its behavioral response through binding to a specific odorant-binding protein called OBP2. Therefore compounds that bind OBP2 have the potential to act as odor “mimics” of 2-heptanone. By utilizing a fluorescent-quench, ligand-protein-binding assay, 30,000 compounds from the DIVERSET® library (ChemBridge Corp., San Diego, Calif.), a chemical library, were screened and over 150 candidate compounds were isolated that bind OBP2 (Table 1). Such assays are generally known in the art. See, e.g., Briand, et al., Ligand-Binding Properties and Structural Characterization of a Novel Rat Odorant-Binding Protein Variant, Eur. J. Biochem. 267(10): 3079-3089 (2000); Briand, et al., Ligand Binding and Physico-Chemical Properties of ASP2, A Recombinant Odorant-Binding Protein From Honeybee (Apis mellifera L.), Eur. J. Biochem. 268(3): 752-760 (2001); Briand, et al., Characterization of a Chemosensory Protein (ASP3c) from Honeybee (Apis mellifera L.) as a Brood Pheromone Carrier, Eur. J. Biochem. 269(18): 4586-4596 (2002), each of which is hereby incorporated by reference in its entirety.

[1] = system: Apis mellifera Carniolan foraging worker honeybees; assay: Proboscis extension response (PER) assay in bees conditioned to 2-heptanone; format: in vivo; conditions: final compound concentration 0.5% (TRITON X-100/water), 4 s exposure; only bees PER-positive to 2-heptanone and negative to controls counted
Protocol: To determine whether a living honeybee can recognize a candidate compound, these compounds were tested using a proboscis extension response (PER) assay using classical conditioning approaches. Proboscis extension response conditioning is a case of appetitive learning, in which bees learn to associate odor stimuli with sucrose reward in the laboratory. In this case, bees were conditioned to produce a PER to 2-heptanone as the conditioned stimulus and a sugar reward as the unconditioned stimulus. These trained bees were then exposed to an odor pulse of a candidate compound to test whether a candidate compound would also produce a PER. If the candidate compound “mimics” 2-heptanone then the honeybee will extend its proboscis.
For conditioning procedures, Apis mellifera Carniolan foraging worker honeybees were obtained from a local apiary (typically 60 bees per shipment). The honeybees were held overnight in insect cages with food and water freely available, in an environmentally controlled room on a light cycle similar to the ambient cycle at the time of the assay.
For conditioning procedures, all tests were done in an odorant delivery apparatus set inside a fume hood. The apparatus comprised a set of open-ended, horizontal, 3 cm diameter by 10 cm long plastic tubes. Each tube was designed where a honeybee could be positioned at the distal end of a tube, with the opening at the other end of the tube located proximal to an inlet of the fume hood. To deliver an odorant, room air was pumped by a diaphragm pump through a particle filter via 0.25 inch plastic tubing at approximately 0.7 m/sec. The air flow passes into the headspace above an odorant (0.5% [v/v]2-heptanone dissolved in odorless light paraffin oil) contained in a 100 mL bottle. The headspace air then passes through another plastic tube to a manifold of 4-way valves, each of which was attached near the proximal end of a plastic tube containing a bee. Each bee was exposed separately for a desired time period to the odorant by opening and closing the appropriate valve. When each valve was closed, the odor was flushed away immediately by the continuous fume hood air stream.
To train a honeybee to respond to a conditioned and unconditioned stimuli, bees were placed, without anesthesia, in individual 1.5 mL micro-centrifuge holding tubes and held overnight without access to food or water. The holding tubes containing the starved bees were placed in racks in groups of eight. One rack at a time was placed behind the odorant delivery apparatus so that each bee's head is centered at the distal end of a horizontal plastic tube. Each bee was exposed to the 2-heptanone odorant alone for four seconds, and then while being fed an 80% sucrose solution for and additional three seconds. The sucrose solution was delivered on a piece of saturated filter paper held in forceps. […] Positive and negative responses were recorded. A positive PER was scored when a bee extended its proboscis before the sucrose appeared. In a typical trial, 48 individual bees were subjected to conditioning. Six rounds of training were done before testing began, and typically a majority of the bees were successfully conditioned by the second or third round of training.
After conditioning, honeybees were tested with the candidate compounds the same day or on the following day or, most commonly, both. When held overnight, bees were fed with sucrose and kept in their holding tubes. When tested the day after training, bees were given one or more rounds of conditioning with 2-heptatone to refresh their memories. Candidate compounds stocks were made at 5% (w/v) in polyoxyethylene octyl phenyl ether (TRITON® X-100), a non-ionic detergent/surfactant, and stored at 4° C. This detergent is similar to substances used as carriers for a variety of commercial pest-control agents, can act as a solvent for both hydrophilic and hydrophobic substances, and is itself nearly odorless. […]

## O=[N+]([O-])c1cc2c(cc1CN1CCN(c3cccc(Cl)c3)CC1)OCO2 [compound 64]
OBP2
  OBP2 binding characteristic of compound: Moderate (Moderate, indicates that 50% or less of the compound bound to OBP2.)
[1]
  2-heptanone positive bees testing positive to compound: 7.0%

## COc1ccc(CN(C)CCN(C)C)c(C)c1C [compound 66]
[1]
  2-heptanone positive bees testing positive to compound: 3.1%

## O=[N+]([O-])c1cc2c(cc1CN1CCN(c3ccccc3)CC1)OCO2 [compound 61]
OBP2
  OBP2 binding characteristic of compound: Moderate (Moderate, indicates that 50% or less of the compound bound to OBP2.)
[1]
  2-heptanone positive bees testing positive to compound: 17.4%

## CN1CCN(Cc2cc3c(cc2[N+](=O)[O-])OCO3)CC1 [compound 45]
[1]
  2-heptanone positive bees testing positive to compound: 11.6%

## COc1ccc(CN2CCOCC2)c(C)c1C [compound 63]
[1]
  2-heptanone positive bees testing positive to compound: 10.9%

## CC1=CC(C)(C)N(C(=O)c2ccc(Br)cc2)c2ccccc21 [compound 11]
OBP2
  OBP2 binding characteristic of compound: Moderate (Moderate, indicates that 50% or less of the compound bound to OBP2.)
[1]
  2-heptanone positive bees testing positive to compound: 4.8%

## CC(C)Nc1c(Cl)c(Cl)c(Cl)c2c1C(=O)c1ccccc1C2=O [compound 22]
OBP2
  OBP2 binding characteristic of compound: Strong (Strong, indicates that 51% or more of the compound bound to OBP2.)
[1]
  2-heptanone positive bees testing positive to compound: 4.4%

## CC(C)(C)C1=CC(=NNC(N)=S)C=C(C(C)(C)C)C1=O [compound 42]
OBP2
  OBP2 binding characteristic of compound: Moderate (Moderate, indicates that 50% or less of the compound bound to OBP2.)
[1]
  2-heptanone positive bees testing positive to compound: 2.6%

## O=C(COC(=O)c1ccccc1)c1cccc(Br)c1 [compound 54]
OBP2
  OBP2 binding characteristic of compound: Moderate (Moderate, indicates that 50% or less of the compound bound to OBP2.)
[1]
  2-heptanone positive bees testing positive to compound: 9.1%

## CCN(CC)c1ccc2c(C)c([N+](=O)[O-])c(=O)oc2c1 [compound 6]
[1]
  2-heptanone positive bees testing positive to compound: 0.0%

## CCOC(=O)c1cc(-c2cccc(N)c2)nc2ccccc12 [compound 21]
OBP2
  OBP2 binding characteristic of compound: Strong (Strong, indicates that 51% or more of the compound bound to OBP2.)
[1]
  2-heptanone positive bees testing positive to compound: 4.4%

## COC(=O)c1cc(S(=O)(=O)Nc2ccc(Br)cc2)ccc1Cl [compound 44]
OBP2
  OBP2 binding characteristic of compound: Moderate (Moderate, indicates that 50% or less of the compound bound to OBP2.)
[1]
  2-heptanone positive bees testing positive to compound: 7.3%

## COc1cc(CN2CCN(Cc3ccc4c(c3)OCO4)CC2)c([N+](=O)[O-])cc1OC [compound 46]
[1]
  2-heptanone positive bees testing positive to compound: 12.8%

## CCN1C(=O)C(=Cc2ccc(O)cc2)SC1=S [compound 15]
OBP2
  OBP2 binding characteristic of compound: Strong (Strong, indicates that 51% or more of the compound bound to OBP2.)
[1]
  2-heptanone positive bees testing positive to compound: 4.1%

## COc1ccc(CN2CCN(C)CC2)c(C)c1C [compound 62]
[1]
  2-heptanone positive bees testing positive to compound: 11.6%

## O=C(C=Cc1c[nH]c2ccccc12)c1ccc(C(=O)C=Cc2c[nH]c3ccccc23)cc1 [compound 51]
[1]
  2-heptanone positive bees testing positive to compound: 14.8%

## CCCCn1c(=O)c(C(=O)NCc2ccccn2)c(O)c2ccccc21 [compound 16]
OBP2
  OBP2 binding characteristic of compound: Strong (Strong, indicates that 51% or more of the compound bound to OBP2.)
[1]
  2-heptanone positive bees testing positive to compound: 6.2%

## O=[N+]([O-])c1ccc(N2CCOCC2)cc1OCCOc1ccccc1 [compound 14]
OBP2
  OBP2 binding characteristic of compound: Moderate (Moderate, indicates that 50% or less of the compound bound to OBP2.)
[1]
  2-heptanone positive bees testing positive to compound: 3.9%

## COC(=O)C1=C(C(=O)OC)SC(=C2C(=S)C(C)(C)N(C)c3ccccc32)S1 [compound 4]
[1]
  2-heptanone positive bees testing positive to compound: 4.7%

## COC(=O)C1=C(C(=O)OC)SC(=C2C(=S)C(C)(C)Nc3cc(C)ccc32)S1 [compound 19]
OBP2
  OBP2 binding characteristic of compound: Strong (Strong, indicates that 51% or more of the compound bound to OBP2.)
[1]
  2-heptanone positive bees testing positive to compound: 2.8%

## O=C(NCCCOC(=O)c1ccc(Cl)cc1)c1ccc(Cl)cc1 [compound 58]
OBP2
  OBP2 binding characteristic of compound: Moderate (Moderate, indicates that 50% or less of the compound bound to OBP2.)
[1]
  2-heptanone positive bees testing positive to compound: 8.3%

## CCOC(=O)C1=C(C)NC(C)=C(C(=O)OC)C1c1ccc(Br)cc1 (stereo not drawn) [compound 41]
OBP2
  OBP2 binding characteristic of compound: Moderate (Moderate, indicates that 50% or less of the compound bound to OBP2.)
[1]
  2-heptanone positive bees testing positive to compound: 1.4%

## O=C(Nc1ccccc1)Nc1ccccc1C#Cc1ccccc1 [compound 57]
OBP2
  OBP2 binding characteristic of compound: Moderate (Moderate, indicates that 50% or less of the compound bound to OBP2.)
[1]
  2-heptanone positive bees testing positive to compound: 16.7%

## O=C(C=Cc1ccccc1)OCC1CCCN(Cc2cccc([N+](=O)[O-])c2)C1 (stereo not drawn) [compound 23]
OBP2
  OBP2 binding characteristic of compound: Strong (Strong, indicates that 51% or more of the compound bound to OBP2.)
[1]
  2-heptanone positive bees testing positive to compound: 3.3%

## COc1ccccc1N1C(=O)C(=Cc2ccc(Cl)cc2)SC1=S [compound 5]
[1]
  2-heptanone positive bees testing positive to compound: 7.1%

## COc1ccc(CN2CCN(c3ccc(C)cc3)CC2)c(C)c1C [compound 49]
[1]
  2-heptanone positive bees testing positive to compound: 0.0%

## CN(CCc1ccccn1)Cc1cc2c(cc1[N+](=O)[O-])OCO2 [compound 48]
[1]
  2-heptanone positive bees testing positive to compound: 18.9%

## COc1ccc(CN2CCN(Cc3cccc(C)c3)CC2)cc1 [compound 65]
[1]
  2-heptanone positive bees testing positive to compound: 6.3%

## COc1ccc(CN(C)CCN(C)C)c(C)c1C [compound 32]
[1]
  2-heptanone positive bees testing positive to compound: 2.4%

## O=[N+]([O-])c1cc2c(cc1CN1CCN(c3cccc(Cl)c3)CC1)OCO2 [compound 24]
[1]
  2-heptanone positive bees testing positive to compound: 4.8%

## COc1ccc2ccccc2c1C=NN1C(=O)c2ccccc2C1=O [compound 13]
[1]
  2-heptanone positive bees testing positive to compound: 8.7%

## O=C(C=Cc1c[nH]c2ccccc12)c1ccc(-c2ccccc2)cc1 [compound 52]
[1]
  2-heptanone positive bees testing positive to compound: 13.9%

## COc1cc(C)c(CN2CCN(CCO)CC2)cc1C [compound 31]
[1]
  2-heptanone positive bees testing positive to compound: 0.0%

## CCOc1ccc(C=Nc2ccc(Br)c(Cl)c2)cc1 [compound 12]
[1]
  2-heptanone positive bees testing positive to compound: 5.8%

## O=[N+]([O-])c1cc2c(cc1CN1CCSCC1)OCO2 [compound 47]
[1]
  2-heptanone positive bees testing positive to compound: 18.3%
